Here are results for four compounds from patent publication US11053300B2, “Membrane span-kinase fusion protein and the uses thereof” (VIB VZW, priority 2012, dated 2021).

Assay [1] concerns the target T1, human somatostatin receptor 2 (SSTR2) (Homo sapiens, UniProt P30874).
T1 construct: expressed in transfected cells; host or cells: HEK293-T
The experiment in a line: Ligand-dependent SSTR2-ARRB2 interaction, Tyk2(C)/gp130 fusion STAT3-luciferase reporter assay. It counts as cell-based. As to conditions: for effect of antagonist on SSTR2-ARRB2 interaction signal: 1 μM somatostatin, 0.05 or 0.5 μM CYN154806, 0.1 or 1 μM losartan or telmisartan, FIG. 4 transfection b; for effect of antagonist on SSTR2-ARRB2 interaction signal, dose-response: 10 μM somatostatin, antagonist 10^-13 M up to 10^-6 M, FIG. 5A. For orientation: In a reporter assay the amount or activity of a reporter protein is the signal.
Excerpt: (§1) The membrane span protein (X) is fused to the C-terminal region of Tyk2 comprising the kinase domain, whereas the polypeptide interacting with the membrane span protein (Y) is fused to a fragment of gp130 which contains phosphorylation sites. When membrane span protein X and the polypeptide Y interact, the Tyk2 kinase domain phosphorylates the phosphorylation sites of gp130. STAT3 transcription factors are recruited to these phosphorylated sites and are in turn phosphorylated by the Tyk2 kinase domain, which results in their activation. Dimers of activated STAT3 transcription factors are able to bind the specific rPAPI promoter, which drives the expression of a firefly luciferase reporter gene. The activity of this reporter gene is measured as light production in a luciferase detection assay using a luminometer.
(§2) The fold induction for each sample was calculated as the ratio of the measured luciferase activity relative to the luciferase activity for the untreated sample of the same transfection.
The assay was further optimized by transferring the Tyk2(C) fusion construct into another vector system (pSVSport) and testing the resulting constructs in a similar experiment as described above. The following combinations of plasmids were transfected (500 ng of the Tyk2(C) fusion construct, 250 ng of the gp130 fusion construct and 50 ng of the luciferase reporter construct) according to the methods described above: […]

The target of assay [2] is T2, human angiotensin receptor 1 (AGTR1) (Homo sapiens, UniProt P30556).
T2 construct: expressed in transfected cells; host or cells: HEK293-T
The experiment in a line: Ligand-dependent AGTR1-ARRB2 interaction, Tyk2(C)/gp130 fusion STAT3-luciferase reporter assay. The class given is cell-based. The conditions noted are these: 10 μM angiotensin II; for effect of antagonist on AGTR1-ARRB2 interaction signal: 0.05 or 0.5 μM CYN154806, 0.1 or 1 μM losartan or telmisartan, FIG. 4 transfection d; for effect of antagonist on AGTR1-ARRB2 interaction signal, dose-response: antagonist 10^-13 M up to 10^-6 M.
Excerpt: as §1
Transfections were carried out using a standard calcium phosphate method. HEK293-T cells were seeded in black tissue-culture treated 96-well plates at 10.000 cells/well in 100 μl culture medium (DMEM supplemented with 10% FCS). Twenty-four hours later, plasmid DNA mixes were prepared that contained plasmids encoding fusion proteins with the first and second interacting proteins and reporter plasmids. The DNA was supplemented with 5 μl 2.5M CaCl2) and double distilled water to a final volume of 50 μl. This mixture was added drop wise to 50 μl 2×HeBS buffer (280 mM NaCl, 1.5 mM Na2HPO4, 50 mM Hepes; pH 7.05) while vigorously vortexing. After incubation at room temperature for 15 min. to allow DNA precipitates to form, the solution was added to the cells at 10 μl/well. Cells were incubated at 37° C., 8% CO2. Twenty-four hours after transfection, cells were treated with the indicated amounts of ligand, either alone or combined with the indicated amount of antagonist. In the case of Irestatin 9389, cells were pre-treated with the antagonist before adding vehicle (DMSO) or tunicamycin. Another twenty-four hours later, luciferase activity was measured using the Luciferase Assay System kit (Promega) on a TopCount luminometer (Perkin-Elmer). Each transfection was done in triplicate and the average of the luciferase activity readings was used in the calculations.
as §2
Cells were transfected with the following combinations of plasmids (250 ng of the Tyk2(C) fusion construct, 250 ng of the gp130 fusion construct and 50 ng of the luciferase reporter construct) according to the methods described above:
Cells were transfected with 125 ng of the pMet7-SSTR2-Tyk2(C)−HA or pMet7-AGTR1-Tyk2(C)−HA fusion construct, 250 ng of the pMG2-ARRB2 gp130 fusion construct and 50 ng of the pXP2d2-rPAPI-luciferase reporter plasmid, according to the methods described above.

Assay [3] addresses T3, ERN1 (Homo sapiens, UniProt O75460). The experiment in a line: ERN1 dimerization, ERN1-Tyk2(C)/ERN1-gp130 luciferase reporter assay. It counts as cell-based. On the set-up: Flag (N); expressed in transfected cells; host or cells: HEK293-T. As for the experimental part:
Transfections were carried out using a standard calcium phosphate method. HEK293-T cells were seeded in black tissue-culture treated 96-well plates at 10.000 cells/well in 100 μl culture medium (DMEM supplemented with 10% FCS). Twenty-four hours later, plasmid DNA mixes were prepared that contained plasmids encoding fusion proteins with the first and second interacting proteins and reporter plasmids. The DNA was supplemented with 5 μl 2.5M CaCl2) and double distilled water to a final volume of 50 μl. This mixture was added drop wise to 50 μl 2×HeBS buffer (280 mM NaCl, 1.5 mM Na2HPO4, 50 mM Hepes; pH 7.05) while vigorously vortexing. After incubation at room temperature for 15 min. to allow DNA precipitates to form, the solution was added to the cells at 10 μl/well. Cells were incubated at 37° C., 8% CO2. Twenty-four hours after transfection, cells were treated with the indicated amounts of ligand, either alone or combined with the indicated amount of antagonist. […] Another twenty-four hours later, luciferase activity was measured using the Luciferase Assay System kit (Promega) on a TopCount luminometer (Perkin-Elmer). Each transfection was done in triplicate and the average of the luciferase activity readings was used in the calculations.
Tunicamycin (Sigma T7765; 2 mg/ml stock in DMSO) was diluted in culture medium and added to the cells 24 h prior to luciferase signal read-out. […]
Target sequence in this assay (O75460 with tags, fused parts or gaps): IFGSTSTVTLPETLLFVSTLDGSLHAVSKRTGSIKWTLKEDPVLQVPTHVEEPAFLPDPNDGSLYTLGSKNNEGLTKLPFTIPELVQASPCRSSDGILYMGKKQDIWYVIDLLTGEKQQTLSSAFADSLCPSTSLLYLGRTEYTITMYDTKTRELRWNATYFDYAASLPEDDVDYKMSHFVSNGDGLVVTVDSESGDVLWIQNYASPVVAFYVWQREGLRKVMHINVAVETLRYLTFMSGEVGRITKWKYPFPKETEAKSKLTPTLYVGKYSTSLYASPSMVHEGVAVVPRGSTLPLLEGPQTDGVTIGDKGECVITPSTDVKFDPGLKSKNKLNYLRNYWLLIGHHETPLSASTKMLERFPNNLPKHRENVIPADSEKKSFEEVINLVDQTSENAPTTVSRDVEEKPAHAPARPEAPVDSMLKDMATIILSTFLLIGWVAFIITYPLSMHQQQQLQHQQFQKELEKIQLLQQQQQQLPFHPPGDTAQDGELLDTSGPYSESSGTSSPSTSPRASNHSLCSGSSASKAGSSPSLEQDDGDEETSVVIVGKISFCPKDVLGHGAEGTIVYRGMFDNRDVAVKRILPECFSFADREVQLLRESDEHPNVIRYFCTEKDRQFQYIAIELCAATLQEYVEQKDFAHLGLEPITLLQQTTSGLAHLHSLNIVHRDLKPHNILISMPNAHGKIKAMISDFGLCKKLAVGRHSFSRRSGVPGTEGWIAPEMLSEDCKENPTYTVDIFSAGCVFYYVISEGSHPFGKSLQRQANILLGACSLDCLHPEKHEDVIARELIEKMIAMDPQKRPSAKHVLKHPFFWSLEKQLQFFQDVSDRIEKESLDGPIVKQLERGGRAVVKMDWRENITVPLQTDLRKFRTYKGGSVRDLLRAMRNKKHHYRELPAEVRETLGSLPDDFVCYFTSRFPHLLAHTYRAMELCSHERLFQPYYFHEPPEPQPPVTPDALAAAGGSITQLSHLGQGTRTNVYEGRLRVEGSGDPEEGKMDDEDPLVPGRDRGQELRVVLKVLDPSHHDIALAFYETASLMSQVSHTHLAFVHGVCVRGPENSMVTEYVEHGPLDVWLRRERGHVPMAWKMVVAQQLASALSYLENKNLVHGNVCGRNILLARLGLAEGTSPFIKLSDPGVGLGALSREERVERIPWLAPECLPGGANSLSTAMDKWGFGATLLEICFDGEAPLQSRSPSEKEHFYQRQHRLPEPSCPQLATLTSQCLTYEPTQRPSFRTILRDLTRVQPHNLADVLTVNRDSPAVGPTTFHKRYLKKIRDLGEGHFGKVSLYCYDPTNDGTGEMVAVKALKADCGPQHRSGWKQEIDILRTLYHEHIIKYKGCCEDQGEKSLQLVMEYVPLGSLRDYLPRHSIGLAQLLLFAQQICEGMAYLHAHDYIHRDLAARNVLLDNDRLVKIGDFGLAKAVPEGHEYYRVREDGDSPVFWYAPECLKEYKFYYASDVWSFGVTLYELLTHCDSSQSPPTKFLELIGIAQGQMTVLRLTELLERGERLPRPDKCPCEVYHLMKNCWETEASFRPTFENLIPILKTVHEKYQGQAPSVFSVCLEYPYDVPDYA

Assay [4] concerns the target T3, ERN1. The conditions noted are these: reported, Feldman and Koong, 2007; cited from earlier work.
Target sequence in this assay (O75460 19-977, species assumed): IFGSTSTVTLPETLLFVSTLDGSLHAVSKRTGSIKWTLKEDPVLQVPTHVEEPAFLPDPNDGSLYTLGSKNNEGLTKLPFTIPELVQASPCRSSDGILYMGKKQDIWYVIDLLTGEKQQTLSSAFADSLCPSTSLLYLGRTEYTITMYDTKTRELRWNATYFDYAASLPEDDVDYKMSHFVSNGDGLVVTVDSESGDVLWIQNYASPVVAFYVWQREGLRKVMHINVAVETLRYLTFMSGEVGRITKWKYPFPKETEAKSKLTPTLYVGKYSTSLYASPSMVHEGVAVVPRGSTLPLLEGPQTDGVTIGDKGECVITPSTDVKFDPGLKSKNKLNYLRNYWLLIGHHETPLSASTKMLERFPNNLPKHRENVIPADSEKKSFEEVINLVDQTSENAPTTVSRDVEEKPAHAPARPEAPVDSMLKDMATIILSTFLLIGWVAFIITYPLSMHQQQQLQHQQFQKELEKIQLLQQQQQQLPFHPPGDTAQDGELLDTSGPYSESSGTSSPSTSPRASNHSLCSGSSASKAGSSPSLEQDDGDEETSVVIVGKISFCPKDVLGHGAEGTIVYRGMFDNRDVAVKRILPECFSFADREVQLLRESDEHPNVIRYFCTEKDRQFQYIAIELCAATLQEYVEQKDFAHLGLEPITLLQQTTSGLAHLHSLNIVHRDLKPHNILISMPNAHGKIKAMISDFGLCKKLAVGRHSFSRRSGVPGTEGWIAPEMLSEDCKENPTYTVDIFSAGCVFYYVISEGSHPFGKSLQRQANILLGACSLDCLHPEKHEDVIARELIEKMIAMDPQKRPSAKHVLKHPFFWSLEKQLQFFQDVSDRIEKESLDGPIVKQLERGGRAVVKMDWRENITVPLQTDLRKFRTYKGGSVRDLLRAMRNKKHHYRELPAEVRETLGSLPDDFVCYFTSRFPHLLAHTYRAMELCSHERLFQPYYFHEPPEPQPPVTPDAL

T1 sequence (P30874 with tags, fused parts or gaps): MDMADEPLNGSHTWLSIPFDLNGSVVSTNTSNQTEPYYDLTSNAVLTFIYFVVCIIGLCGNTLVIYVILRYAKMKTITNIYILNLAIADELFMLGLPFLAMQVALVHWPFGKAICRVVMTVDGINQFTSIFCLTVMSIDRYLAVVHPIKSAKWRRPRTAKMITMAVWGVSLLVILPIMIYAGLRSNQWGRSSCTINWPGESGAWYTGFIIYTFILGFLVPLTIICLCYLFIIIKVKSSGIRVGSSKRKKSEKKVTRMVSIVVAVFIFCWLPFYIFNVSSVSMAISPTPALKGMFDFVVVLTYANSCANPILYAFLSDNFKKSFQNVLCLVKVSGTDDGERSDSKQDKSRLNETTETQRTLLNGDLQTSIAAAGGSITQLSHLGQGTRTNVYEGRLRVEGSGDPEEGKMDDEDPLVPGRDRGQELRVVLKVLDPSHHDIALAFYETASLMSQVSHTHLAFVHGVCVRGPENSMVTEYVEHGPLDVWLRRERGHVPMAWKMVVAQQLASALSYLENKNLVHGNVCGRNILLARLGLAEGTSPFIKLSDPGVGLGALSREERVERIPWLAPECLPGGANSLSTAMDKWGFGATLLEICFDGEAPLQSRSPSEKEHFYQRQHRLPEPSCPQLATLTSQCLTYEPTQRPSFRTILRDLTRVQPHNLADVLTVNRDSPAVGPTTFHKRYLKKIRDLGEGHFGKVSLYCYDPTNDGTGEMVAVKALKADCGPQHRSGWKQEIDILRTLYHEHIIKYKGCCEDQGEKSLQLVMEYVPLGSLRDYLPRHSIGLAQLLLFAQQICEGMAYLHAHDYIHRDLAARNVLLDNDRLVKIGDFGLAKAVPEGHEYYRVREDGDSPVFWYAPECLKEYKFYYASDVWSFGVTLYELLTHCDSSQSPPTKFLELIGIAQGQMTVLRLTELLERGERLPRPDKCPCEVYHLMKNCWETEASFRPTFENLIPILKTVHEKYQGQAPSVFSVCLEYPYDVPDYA
T2 sequence (P30556 with tags, fused parts or gaps): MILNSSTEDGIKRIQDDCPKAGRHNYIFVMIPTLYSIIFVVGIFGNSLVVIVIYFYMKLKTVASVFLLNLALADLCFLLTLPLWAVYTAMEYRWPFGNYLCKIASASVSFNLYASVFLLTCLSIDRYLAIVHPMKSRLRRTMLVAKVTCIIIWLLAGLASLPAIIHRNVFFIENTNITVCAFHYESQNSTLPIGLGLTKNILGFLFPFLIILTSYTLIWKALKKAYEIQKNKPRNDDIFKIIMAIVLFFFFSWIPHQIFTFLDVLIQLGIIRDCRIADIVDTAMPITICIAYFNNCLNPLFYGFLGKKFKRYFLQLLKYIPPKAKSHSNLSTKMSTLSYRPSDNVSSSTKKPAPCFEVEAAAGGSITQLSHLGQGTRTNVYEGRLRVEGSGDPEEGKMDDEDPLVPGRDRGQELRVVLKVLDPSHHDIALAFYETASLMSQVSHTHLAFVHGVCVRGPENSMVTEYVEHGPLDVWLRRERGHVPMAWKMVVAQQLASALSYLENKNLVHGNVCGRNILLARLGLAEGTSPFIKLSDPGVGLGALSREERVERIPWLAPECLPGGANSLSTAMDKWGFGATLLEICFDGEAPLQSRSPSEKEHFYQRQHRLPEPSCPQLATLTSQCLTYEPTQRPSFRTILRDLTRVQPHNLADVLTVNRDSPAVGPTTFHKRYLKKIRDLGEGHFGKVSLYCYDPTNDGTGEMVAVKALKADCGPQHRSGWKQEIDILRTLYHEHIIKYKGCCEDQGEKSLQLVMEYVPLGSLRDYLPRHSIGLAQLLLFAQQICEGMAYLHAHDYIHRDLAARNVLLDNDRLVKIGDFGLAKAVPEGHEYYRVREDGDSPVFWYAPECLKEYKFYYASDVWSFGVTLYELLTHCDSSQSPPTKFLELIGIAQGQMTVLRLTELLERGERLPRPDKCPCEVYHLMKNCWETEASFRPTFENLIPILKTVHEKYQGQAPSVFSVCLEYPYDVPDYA

Take `CCCc1nc2c(C)cc(-c3nc4ccccc4n3C)cc2n1Cc1ccc(-c2ccccc2C(=O)O)cc1` [telmisartan]: in assay [1], the “effect of antagonist on SSTR2-ARRB2 interaction signal” value was “no effect” and the “effect of antagonist on SSTR2-ARRB2 interaction signal, dose-response” value was “no effect”. In addition, the “effect of antagonist on AGTR1-ARRB2 interaction signal” value in assay [2] is reported as “selectively inhibited”. The “effect of antagonist on AGTR1-ARRB2 interaction signal, dose-response” value in assay [2] (FIG. 5B) was “selectively and completely inhibited”. Further, in assay [2] (dose-response, FIG. 5B), the “effect of telmisartan compared to losartan on AGTR1-ARRB2 interaction” value is reported as “stronger effect”.
In the case of `CCCCc1nc(Cl)c(CO)n1Cc1ccc(-c2ccccc2-c2nn[nH]n2)cc1` [losartan], in assay [1], the “effect of antagonist on SSTR2-ARRB2 interaction signal” value was “no effect” and the “effect of antagonist on SSTR2-ARRB2 interaction signal, dose-response” value is on record as “no effect”. Further, the “effect of antagonist on AGTR1-ARRB2 interaction signal” value in assay [2] is on record as “selectively inhibited”. Further, the “effect of antagonist on AGTR1-ARRB2 interaction signal, dose-response” value in assay [2] (FIG. 5B) was “selectively and completely inhibited”.
In the case of tunicamycin, the “luciferase signal of ERN1 dimerization upon induction of ER-stress” value at ERN1 [3] (HEK293-T cells, ERN1-Tyk2(C) + ERN1-gp130, 0-0.5-1-2 μg/ml tunicamycin, FIG. 6A) is reported as “dose-dependent signal”.
For the compound `Cc1csc(NC(=O)CSc2nc3c(c(C(F)(F)F)c2C#N)CCC3)n1` [Irestatin 9389], the ERN1 endonuclease activity result at ERN1 [4] is recorded as “inhibit ERN1 endonuclease activity”. For the same compound, the “disruption of ERN1 dimerization” value at ERN1 [3] (1 μg/ml tunicamycin or vehicle (DMSO) combined with increasing doses of Irestatin 9389, FIG. 6D) is given as “dose-dependent disruption of ERN1 dimerization”.
